≈ marks a conversion by molar mass, not a printed value. Calls of active or inactive are those of the source. No cut-off for these calls is given here.
How the values were obtained:
LNCaP [1] = assay: Induction of procaspase 3 expression in human LNCaP cells at 50 ug/ml after 48 hrs by immunoblot; type: functional, cell-based
L929 = assay: Cytotoxicity against mouse L929 cells after 48 hrs by MTT assay; type: cell-based; conditions: L929, 48 h
LNCaP [2] = assay: Induction of apoptosis in human LNCaP cells assessed as procaspase 8 cleavage by immunoblot; type: functional, cell-based
LNCaP [3] = assay: Reduction of NF-kappaB binding to cyclin D promoter in human LNCaP cells by electrophoretic mobility shift assay; type: cell-based
LNCaP [4] = assay: Increase in p21 mRNA expression in human LNCaP cells at >12.5 ug/mL after 24 hrs by RT-PCR; type: functional, cell-based
LNCaP [5] = assay: Induction of procaspase 3 expression in human LNCaP cells at 25 ug/ml after 48 hrs by immunoblot; type: functional, cell-based
LNCaP [6] = assay: Apoptotic activity in human LNCaP cells assessed as induction of p21 expression at 12.5 ug/ml after 12 hrs by immunoblot; type: functional, cell-based
LNCaP [7] = assay: Cytotoxicity against human LNCaP cells after 48 hrs by MTT assay; type: functional, cell-based
LNCaP [8] = assay: Decrease of PCNA expression in human LNCaP cells after 24 hrs by immunoblotting analysis; type: functional, cell-based
LNCaP [9] = assay: Decrease in mitochondrial membrane potential in human LNCaP cells at 50 ug/ml after 18 hrs; type: functional, cell-based
LNCaP [10] = assay: Increase in intracellular ROS generation in human LNCaP cells at 6.25 ug/ml after 30 mins; type: functional
LNCaP [11] = assay: Induction of apoptosis in human LNCaP cells assessed as procaspase 3 cleavage at 50 ug/ml by immunoblot; type: functional, cell-based; conditions: TDE = time-dependent effect
LNCaP [12] = assay: Induction of apoptosis in human LNCaP cells assessed as subG1 phase accumulation at > 6.25 ug/ml after 4 days; type: functional, cell-based
LNCaP [13] = assay: Decrease of cyclin D expression in human LNCaP cells after 24 hrs by immunoblotting analysis; type: functional, cell-based
LNCaP [14] = assay: Increase in intracellular ROS generation in human LNCaP cells at 50 ug/ml after 30 mins; type: functional
LNCaP [15] = assay: Effect on cell morphology in human LNCaP cells assessed as loss of cell surface structure at => 12.5 ug/mL; type: functional
SW-620 = assay: Cytotoxicity against human SW620 cells after 48 hrs by MTT assay; type: functional, cell-based; conditions: SW-620, 48 h
LNCaP [16] = assay: Induction of apoptosis in human LNCaP cells assessed as procaspase 8 cleavage at 12.5 ug/ml by immunoblot; type: functional, cell-based; conditions: TDE = time-dependent effect
LNCaP [17] = assay: Cell cycle arrest in human LNCaP cells assessed as accumulation in S phase at 6.25 ug/ml after 4 days; type: functional
LNCaP [18] = assay: Induction of apoptosis in human LNCaP cells assessed as procaspase 3 cleavage at 12.5 ug/ml by immunoblot; type: functional, cell-based; conditions: TDE = time-dependent effect
LNCaP [19] = assay: Cell cycle arrest in human LNCaP cells assessed as reduction of G1 phase at > 6.25 ug/ml after 4 days; type: functional, cell-based
LNCaP [20] = assay: Induction of apoptosis in human LNCaP cells assessed as procaspase 3 cleavage by immunoblot; type: functional, cell-based
LNCaP [21] = assay: Apoptotic activity in human LNCaP cells assessed as induction of Fas expression at 12.5 ug/ml after 24 hrs by immunoblot; type: functional, cell-based
LNCaP [22] = assay: Induction of procaspase 3 expression in human LNCaP cells at 6.25 ug/ml after 48 hrs by immunoblot; type: functional, cell-based
LNCaP [23] = assay: Cell cycle arrest in human LNCaP cells assessed as accumulation in G1 phase at 6.25 ug/ml after 4 days; type: functional
LNCaP [24] = assay: Apoptotic activity in human LNCaP cells assessed as induction of FasL expression after 12 hrs; type: functional, cell-based
[25] = molecular target: Transcription factor Jun (Homo sapiens) (UniProt P05412); assay: Reduction of AP1 binding to cyclin D promoter in human LNCaP cells by electrophoretic mobility shift assay; type: cell-based
Sequence of Transcription factor Jun (Homo sapiens) (P05412 whole entry): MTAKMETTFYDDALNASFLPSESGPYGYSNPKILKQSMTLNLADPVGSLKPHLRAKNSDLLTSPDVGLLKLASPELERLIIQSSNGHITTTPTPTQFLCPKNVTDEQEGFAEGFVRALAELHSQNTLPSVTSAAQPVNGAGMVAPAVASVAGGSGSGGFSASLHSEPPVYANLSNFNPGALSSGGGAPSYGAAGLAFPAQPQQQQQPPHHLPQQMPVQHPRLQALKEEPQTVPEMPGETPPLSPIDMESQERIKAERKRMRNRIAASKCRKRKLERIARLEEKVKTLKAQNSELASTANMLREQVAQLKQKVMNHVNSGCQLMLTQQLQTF

LNCaP [26] = assay: Apoptotic activity in human LNCaP cells assessed as induction of FasL expression at 12.5 ug/ml after 6 hrs by immunoblot; type: functional, cell-based
LNCaP [27] = assay: Induction of apoptosis in human LNCaP cells assessed as procaspase 8 cleavage at 50 ug/ml by immunoblot; type: functional, cell-based; conditions: TDE = time-dependent effect
LNCaP [28] = assay: Decrease in mitochondrial membrane potential in human LNCaP cells at 6.25 ug/ml after 18 hrs; type: functional

## O=C1c2c(O)cc(O)cc2O[C@H](c2ccc(O)cc2)[C@@H]1[C@@H]1C(=O)c2c(O)cc(O)cc2O[C@@H]1c1ccc(O)cc1 [NEOCHAMAEJASMIN A]
LNCaP [1]
  Activity: Active
L929
  IC50: 90 µg/mL (≈ 166 µM)
LNCaP [2]
  Activity: Dose-dependent effect
LNCaP [3]
  Activity: Active
LNCaP [4]
  Activity: Active
LNCaP [5]
  Activity: Active
LNCaP [6]
  Activity: Active
LNCaP [7]
  IC50: 12.5 µg/mL (≈ 23 µM)
LNCaP [8]
  Activity: Dose-dependent effect
LNCaP [9]
  Activity: Active
LNCaP [10]
  fold change (FC): 1.5
LNCaP [11]
  Activity: tde
LNCaP [12]
  Activity: Active
LNCaP [13]
  Activity: Dose-dependent effect
LNCaP [14]
  fold change (FC): 3.5
LNCaP [15]
  Activity: >=12.5 ug ml-1
SW-620
  IC50: 25.1 µg/mL (≈ 46.3 µM)
LNCaP [16]
  Activity: tde
LNCaP [17]
  Activity: <10%
LNCaP [18]
  Activity: tde
LNCaP [19]
  Activity: Dose-dependent effect
LNCaP [20]
  Activity: Dose-dependent effect
LNCaP [21]
  Activity: Active
LNCaP [22]
  Activity: Active
LNCaP [23]
  Activity: 75%
LNCaP [24]
  Activity: Dose-dependent effect
[25]
  Activity: Active
LNCaP [26]
  Activity: Active
LNCaP [27]
  Activity: tde
LNCaP [28]
  fold change (FC): 1.6
